Publication PMC10227015, “From a drug repositioning to a structure-based drug design approach to tackle acute lymphoblastic leukemia” (Nature Communications, 2023)
Read-outs that look alike come from different tables or passages of the source.

What was measured:
[1] = system: CCRF-CEM cell line; experiment: dCK cellular assay: CCRF-CEM proliferation in the presence of dT and dC; type: cell-based, human
Method: The dCK cellular assay was set up to assess the ability to inhibit dCK activity in a cellular model. The model was developed with a T-cell acute lymphoblastic leukemia cell line (CCRF-CEM), because of its high dependence on the SP, thus on dCK activity. Cellular assays were performed to assess the inhibition of cell proliferation under two conditions: (i) in the presence of the compound alone to determine the nonspecific effect on cells, independent of dCK (nonspecific toxicity) and (ii) in the presence of an inhibitor of the DNP to determine the ability of compounds to inhibit dCK and decrease tumor proliferation (activity on dCK). The inhibitor of the DNP chosen for the experiments was thymidine (dT), a physiological inhibitor of ribonucleotide reductase which arrests cell proliferation in phase S. The dTTP produced via thymidine kinase from dT acts as a RNR inhibitor by an allosteric regulation of the R1 subunit. The addition of the nucleoside deoxycytidine (dC) in the medium allows the rescue of cell proliferation by passing only through the salvage pathway, mediated by dCK. dC needs to be added exogenously to mimic physiological concentrations because it is not present in the cell culture medium, on the contrary to mouse model, in which it is naturally present in the serum. Therefore, cell proliferation under these conditions (+dT +dC) is dCK dependent and it is possible to determine the IC50 of dCK inhibitors on the inhibition of cell proliferation. Results are expressed as % cell proliferation relative to the control with DMSO.
The amount of reduced dye formed by metabolically active cells was quantified by its fluorescence measured at 560 nm (excitation) and 590 nm (emission) in a microplate reader (CLARIOstar, BMG Labtech). A blank well without cells was used as a background control. Each experiment was performed at least three times (with technical triplicates) and data are presented as the mean ± SD.

[2] = system: dCK-C3S-S74E; experiment: Thermal shift assay (TSA); settings: for THERMAL SHIFT ASSAY +Tm (°): mean ± SD; for ΔTm (º) (TSA): Figure 2a, mean
Chain of dCK-C3S-S74E (P27707 whole entry S74E, form open): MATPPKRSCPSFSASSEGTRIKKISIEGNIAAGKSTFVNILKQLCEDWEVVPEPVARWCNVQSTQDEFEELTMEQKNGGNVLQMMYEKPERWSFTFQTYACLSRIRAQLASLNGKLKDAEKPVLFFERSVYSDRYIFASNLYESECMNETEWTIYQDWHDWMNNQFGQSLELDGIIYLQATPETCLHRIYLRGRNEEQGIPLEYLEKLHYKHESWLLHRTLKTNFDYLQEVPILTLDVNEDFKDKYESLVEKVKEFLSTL
Description: BL21 pRIL Escherichia coli cells were transformed with dCK-plasmids (dCK-C4S-S74E (for crystallization assays) and dCK-C3S-S74E (for TSA, enzymatic and ITC assays)). […] Protein dCK-C3S-S74E used for other assays contained only three mutated cysteines. The S74E mutation mimics the phosphorylated state of this serine, which favors the open conformation of the enzyme, making it competent for nucleoside binding[45] to evaluate the binding affinity with compounds.
For binding assays (TSA, ITC and crystallography) cells were re-suspended in 50 mM TRIS, pH 8, 500 mM NaCl, 30 mM imidazole and 10% glycerol buffer and one EDTA free anti-protease tablet was added (Roche). After sonication and centrifugation (30,000 × g), the supernatant was loaded on a 5 ml HisTrap FF column (GE healthcare) pre-equilibrated with resuspension buffer. Protein was then eluted by resuspension buffer containing 500 mM imidazole. Protein eluted fractions were mixed and concentrated. Protein was further purified by size exclusion chromatography (superdex 200 16/600, GE healthcare) in 20 mM HEPES, pH 7.5, and 200 mM NaCl before concentration to 30 mg/ml and storage at −80 °C.
Thermal shift assay (TSA) experiments were performed in 384-well PCR white plates in the assay buffer containing 20 mM HEPES, pH 7.5 and 200 mM NaCl. […] Plates were centrifuged at 200 × g for 2 min at 4 °C. […] Raw fluorescence data were treated, and the melting temperatures (Tm) were calculated using CFX Manager 3.1 software (Bio-Rad). ΔTm represents the difference in Tm between the protein in the presence of compound and the protein alone (both at 2% DMSO). Each experiment was performed at least twice (with technical triplicates) and data are presented as the mean ± SD.

[3] = Homo sapiens, read-out: dCK CELLULAR ASSAY IC50 (nM), CCRF-CEM, 200 µM dT and 1 µM dC, read-out: dCK […] ASSAY IC50
[4] = Homo sapiens, Figure 2a, CCRF-CEM cell line, mean, read-out: IC50 (nM) (Cell Prolif)
[5] = Figure 2a, CCRF-CEM cell line, mean, read-out: IC50 (nM) (Cell Prolif)

Row | SMILES | IC50 [1, 3] [nM] | THERMAL SHIFT ASSAY +Tm (°) [2] [°] | IC50 [1, 4] [nM] | ΔTm (º) (TSA) [2] | IC50 [1, 5] [nM]
1 | Cc1ccc(NC(=O)c2cnc(CN3CCN(C)CC3)nc2)cc1Nc1nc(-c2nccc(N)n2)cs1 [OR0125] | 37700 ± 4380 | 10.3 ± 0.0 | – | – | –
2 | Cc1ccc(Oc2ccc(CN3CCN(C)CC3)cc2)cc1Nc1nc(-c2nccc(N)n2)cs1 [OR0143] | 2790 ± 1740 | 13.2 ± 0.2 | – | – | –
3 | CN1CCN(CCc2ccc(-c3ccc4c(c3)N(c3nc(-c5nccc(N)n5)cs3)CCCC4)cc2)CC1 [OR0402] | 1760 ± 160 | 19.2 ± 0.3 | – | – | –
4 | Cc1ccc(-c2ccc(CCN3CCN(C)CC3)cc2)cc1N(CC1CC1)c1nc(-c2nc(N)cc(N)n2)cs1 [OR0604] | – | 19.7 ± 1.0 | 609 | 19.7 º | –
5 | Cc1ccc(-c2ccc(CCN3CCN(C)CC3)cc2)cc1N(CCC(C)C)c1nc(-c2nc(N)cc(N)n2)cs1 [OR0605] | – | 18.7 ± 0.6 | 2220 | 18.67 º | –
6 | CCCCN(c1nc(-c2nc(N)cc(N)n2)cs1)c1cc(-c2ccc(CCN3CCN(C)CC3)cc2)ccc1C [OR0606] | – | 19.9 ± 0.5 | 552 | 19.85 º | –
7 | Cc1ccc(-n2cc(CNS(C)(=O)=O)nn2)cc1N(CC(C)C)c1nc(-c2nc(N)cc(N)n2)cs1 [OR0609] | – | 13.5 ± 0.7 | – | 13.5 º | 3180
8 | Cc1ccc(-c2ccc(CCN3CCN(C)CC3)cc2)cc1N(CCN)c1nc(-c2nc(N)cc(N)n2)cs1 [OR0610] | – | 14.7 ± 0.2 | 16400 | 14.7 º | –
9 | CCCN(c1nc(-c2nc(N)cc(N)n2)cs1)c1cc(-c2ccc(NC(=O)N3CCN(C)CC3)nc2)ccc1C [OR0616] | – | 19.2 ± 0.8 | 135 | 19.23 º | –
10 | CCCN(c1nc(-c2nc(N)cc(N)n2)cs1)c1cc(-c2ccc(CN(C)C)cc2)ccc1C [OR0619] | – | 16.9 ± 0.5 | 614 | 16.88 º | –
11 | CCCN(c1nc(-c2nc(N)cc(N)n2)cs1)c1cc(-c2cccnc2)ccc1C [OR0620] | – | 15.7 ± 0.5 | 407 | 15.71 º | –
12 | CCCN(c1nc(-c2nc(N)cc(N)n2)cs1)c1cc(-c2ccc(C(=O)N3CCOCC3)nc2)ccc1C [OR0621] | – | 16.6 ± 0.9 | 169 | 16.63 º | –
13 | CCCN(c1nc(-c2nc(N)cc(N)n2)cs1)c1cc(-c2ccc(C(=O)OC)nc2)ccc1C [OR0622] | – | 16.5 ± 0.1 | 416 | 16.54 º | –
14 | CCCN(c1nc(-c2nc(N)cc(N)n2)cs1)c1cc(-c2ccc(NS(=O)(=O)N3CCN(C)CC3)nc2)ccc1C [OR0625] | – | 16.8 ± 0.7 | 353 | 16.82 º | –
15 | CCCN(c1nc(-c2nc(N)cc(N)n2)cs1)c1cc(-c2ccc3[nH]ccc3c2)ccc1C [OR0626] | – | 16.9 ± 0.5 | 5750 | 16.85 º | –
16 | CCCN(c1nc(-c2nc(N)cc(N)n2)cs1)c1cc(-c2ccc(OCCN3CCN(C)CC3)nc2)ccc1C [OR0629] | – | 20.6 ± 0.1 | 139 | 20.6 º | –
17 | Cc1ccc(-c2ccc(S(=O)(=O)N3CCN(C)CC3)cc2)cc1N(C)c1nc(-c2nc(N)cc(N)n2)cs1 [OR0631] | – | 16.8 ± 0.1 | 2740 | 16.75 º | –

Row | SMILES | IC50 [1, 3] [nM] | THERMAL SHIFT ASSAY +Tm (°) [2] [°] | IC50 [1, 4] [nM] | ΔTm (º) (TSA) [2] | IC50 [1, 5] [nM]
18 | CCN(c1nc(-c2nc(N)cc(N)n2)cs1)c1cc(-c2ccc(S(=O)(=O)N3CCN(C)CC3)cc2)ccc1C [OR0632] | – | 17.8 ± 0.1 | 413 | 17.75 º | –
19 | CCCN(c1nc(-c2nc(N)cc(N)n2)cs1)c1cc(-c2ccc(S(=O)(=O)N3CCN(C)CC3)cc2)cc(F)c1C [OR0633] | – | 17.3 ± 0.1 | 140 | 17.25 º | –
20 | Cc1ccc(-c2ccc(S(=O)(=O)N3CCN(C)CC3)cc2)cc1N(c1nc(-c2nc(N)cc(N)n2)cs1)C(C)C [OR0636] | – | 17.7 ± 0.9 | 301 | 17.68 º | –
21 | Cc1ccc(-c2ccc(S(=O)(=O)N3CCN(C)CC3)cc2)cc1N(CC(C)C)c1nc(-c2nc(N)cc(N)n2)cs1 [OR0637] | 84 ± 49 | 20.5 ± 0.9 | 88.3 | 20.49 º | –
22 | CCCN(c1nc(-c2nc(N)cc(N)n2)cs1)c1cc(-c2ccc(S(=O)(=O)N3CCN(CC)CC3)cc2)ccc1C [OR0638] | – | 20.2 ± 0.9 | 35 | 20.22 º | –
23 | CCCN(c1nc(-c2nc(N)cc(N)n2)cs1)c1cc(-c2ccc(S(=O)(=O)N3CCNCC3)cc2)ccc1C [OR0639] | – | 20.7 ± 0.9 | 119 | 20.72 º | –
24 | CCCN(c1nc(-c2nc(N)cc(N)n2)co1)c1cc(-c2ccc(S(=O)(=O)N3CCN(C)CC3)cc2)ccc1C [OR0640] | – | 18.2 ± 0.9 | 3670 | 18.22 º | –
25 | CCCN(c1nc(-c2nc(N)cc(N)n2)cs1)c1cc(-c2ccc(S(=O)(=O)N3CCN(C)CC3)cc2Cl)ccc1C [OR0641] | 10.5 ± 5 | 21.1 ± 1.1 | 10 | 21.11 º | –
26 | CCCN(c1nc(-c2nc(N)cc(N)n2)cs1)c1cc(-c2ccc(S(=O)(=O)N3CCN(C)CC3)cc2F)ccc1C [OR0643] | 46 ± 18 | 20.2 ± 0.9 | 45.7 | 20.22 º | –
27 | CCCN(c1nc(-c2nc(N)cc(N)n2)cs1)c1cc(-c2c(F)cc(S(=O)(=O)N3CCN(C)CC3)cc2OC)ccc1C [OR0644] | – | 20.5 ± 1.2 | 12.1 | 20.5 º | –
28 | CCCN(c1nc(-c2nc(N)cc(N)n2)cs1)c1cc(-c2ccc(S(=O)(=O)N3CCN(C)CC3)cc2OC)ccc1C [OR0645] | 67 ± 22 | 19.7 ± 0.9 | 67.4 | 19.72 º | –
29 | CCCN(c1nc(-c2nc(N)cc(N)n2)cs1)c1cc(-c2ccc(S(=O)(=O)C3CCNCC3)cc2)ccc1C [OR0646] | – | 22.4 ± 1.1 | 171 | 22.39 º | –
30 | CCCN(c1nc(-c2nc(N)cc(N)n2)cs1)c1cc(-c2c(F)cc(S(=O)(=O)N3CCN(C)CC3)cc2F)ccc1C [OR0647] | 10.9 ± 4.1 | 21.1 ± 1.6 | 11 | 21.06 º | –
31 | CCCN(c1nc(-c2nc(N)cc(N)n2)cs1)c1cc(-c2ccc(S(=O)(=O)N3CCC(N)CC3)cc2)ccc1C [OR0648] | – | 22.3 ± 1.1 | 134 | 22.28 º | –
32 | CCCN(c1nc(-c2nc(N)cc(N)n2)cs1)c1cc(-c2ccc(S(=O)(=O)N3CCN(C)CC3)c(OC(F)(F)F)c2)ccc1C [OR0650] | – | 18.6 ± 1.5 | 120 | 18.61 º | –
33 | CCCN(c1nc(-c2nc(N)cc(N)n2)cs1)c1cc(-c2ccc(S(=O)(=O)NCCN)cc2)ccc1C [OR0651] | 1520 ± 178 | 20.8 ± 1.2 | 1530 | 20.83 º | –
34 | CCCN(c1nc(-c2nc(N)cc(N)n2)cs1)c1cc(-c2cnc(S(=O)(=O)N3CCN(C)CC3)cc2C)ccc1C [OR0652] | – | – | – | 19.17 º | 7.3
